Where two headings read alike, the source gives them in different places.
What was measured:
[1] = biological target: T1, NΔ360 (derivative of EBNA1) (Epstein-Barr virus, UniProt P03211); format: biochemical; settings: for Ki: 6.5 nM dimers of NΔ360, 20 fmols DNA with two EBNA1-binding sites, Ki = concentration of competitor which inhibits linking to 50%, read-out: Ki against NΔ360
T1 construct: NΔ360 and NΔ389 have a methionine followed by amino acids 361 and 390 to the carboxy-terminus, respectively; added initiator methionine (N); made in house; host or cells: E. coli
From the text: (§1) Two DNAs used as probes in this study were generated by endonuclease digestion of cloned DNAs. That with two EBNA1-binding sites is the 131 bp, SalI to PstI fragment derived from p880 (30); and that with five GAL4-binding sites is the 109 bp, HinDIII to XbaI fragment derived from G5BCAT (31). DNA fragments were purified from agarose gels. […] This method distinguishes less than two-fold differences in DNA concentrations. These DNAs were labeled with the Klenow fragment of DNA Polymerase 1 in the presence of dATP, dGTP, dTTP, and ^32P α-dCTP (Amersham), and precipitated three times to remove unincorporated label (32).
(§2) The derivatives of EBNA1 (bEBNA1, NΔ360, NΔ389) and the GAL4 derivatives (GAL4(1-94), GAL4(1-94)&54-89, GAL4(1-94)&331-361, GAL4(1-94)&372-391) used in this study were all produced and purified as previously described (28). Briefly, bEBNA1 lacks amino acids 2 through 7 and all but fifteen amino acids of the gly-gly-ala repeats and was expressed in SF21 cells (23). NΔ360 and NΔ389 lack the first 360 and 389 amino acids, respectively, and were expressed in E. coli. GAL4(1-94) contains amino acids 1 to 94 of the yeast transactivator GAL4 plus eight carboxy-terminal amino acids coded by the poly-cloning region. The fusions designated GAL4(1-94)&#—# contain the indicated residues from EBNA1 cloned in frame into the poly-cloning region. All derivatives and fragments of EBNA1 were derived from the B95-8 viral strain (33, 15).
(§3) A.A. 40-89 and A.A. 331-391 were generated by amplifying the fragment of EBNA1 encoding those amino acids with PCR primers containing SalI and XbaI sites at the 5′ ends. […] The sequence of both clones was verified using an ABI Prism automated sequencer (Applied BioSystems). Expression of the fusion proteins in BL21 bacteria containing a DE3 lysogen and carrying pLysS was done as previously described (28). Purification using Ni^2+-NTA agarose (Qiagen) followed standard protocols (The QIAexpressionist, Qiagen). Following elution of A.A. 40-89 and A.A. 331-391 in 500 and 150 mM imidazole, respectively, the peptides were dialyzed into a buffer containing 50 mM Tris (pH 7.5), 2.5 mM EDTA, and 0.3 M NaCl.
(§4) Gel shift assays were done as previously described (28). All reactions contained 20 mM N-2-hydroxyethylpiperazine-N′-2-ethanesulfonic acid (HEPES; pH 7.6), 2 mM EDTA, 10% glycerol, 0.1% Nonidet P-40, and 0.3 M NaCl. Proteins were mixed in volume of 15 μl. The labeled DNA and 3 μg of poly(dI)•poly(dC) (Pharmacia) in 8 μl were added with mixing. The reactions were then incubated 30-45 minutes at room temperature. Reactions were separated by electrophoresis at 15-25 mA through a 4% polyacrylamide gel in 0.5×TBE (45 mM Tris-borate and 1 mM EDTA). Gels were dried on 3MM chromatography paper (Whatman) at 80° C. for 1 hour and then exposed to phosphorimager screens. The percentage of DNA linked is determined by dividing the amount of linked DNA by the total amount of DNA in the lane.
(§5) FIG. 3A: 20 fmols of a DNA with two EBNA1-binding sites were combined with the indicated concentrations of dimers of NΔ360 and A.A. 331-391 prior to separation by electrophoresis through a 4% polyacrylamide gel. […] The positions of linked DNA, unbound DNA, and DNA with one and two sites occupied by NΔ360 (1 and 2, respectively) are indicated. […] The percentage bound is the fraction of the total DNA in the lane which is shifted above the bracket for unbound DNA. […] The standard deviations are from three separate experiments.

[2] = biological target: bEBNA1 (derivative of EBNA1); format: biochemical, Epstein-Barr virus; settings: for Ki: 6.5 nM dimers of bEBNA1, 20 fmols DNA with two EBNA1-binding sites, Ki = concentration of competitor which inhibits linking to 50%, read-out: Ki against bEBNA1; for Ki for linking by bEBNA1 relative to linking by NΔ360: DNA with two EBNA1-binding sites; for Effectiveness of competition with linking by bEBNA1 relative to linking by NΔ360: DNA with two binding sites
Procedure: (§6) Two DNAs used as probes in this study were generated by endonuclease digestion of cloned DNAs. That with two EBNA1-binding sites is the 131 bp, SalI to PstI fragment derived from p880 (30); and that with five GAL4-binding sites is the 109 bp, HinDIII to XbaI fragment derived from G5BCAT (31). DNA fragments were purified from agarose gels. They were quantified by making serial dilutions in the presence of ethidium bromide (0.5 μg/mL) and comparing their intensities, when exposed to ultraviolet light, to that of similar dilutions of a standard DNA. This method distinguishes less than two-fold differences in DNA concentrations. These DNAs were labeled with the Klenow fragment of DNA Polymerase 1 in the presence of dATP, dGTP, dTTP, and ^32P α-dCTP (Amersham), and precipitated three times to remove unincorporated label (32).
as §2, §3, §4

[3] = biological target: T2, GAL4(1-94)&54-89 (Epstein-Barr virus, UniProt P03211); experiment: Gel shift assay: inhibition of DNA-linking by GAL4(1-94)&54-89; format: biochemical; settings: 2.5-fold molar excess of competitor; DNA with five GAL4-binding sites (FIG. 2A)
T2 construct: made in house
Procedure: as §6, with “(32). […]” for “(32).”
Gel shift assays were done as previously described (28). […] The percentage of DNA linked is determined by dividing the amount of linked DNA by the total amount of DNA in the lane.
The ability of GAL4(1-94)&54-89 (FIG. 1) to link DNAs containing five GAL4-binding sites was tested in the absence of any competitor and in the presence of a 2.5-fold molar excess of three derivatives of EBNA1 (FIG. 1). […] For both FIGS. 2A and B the reactions were manipulated and analyzed to determine the percentage of maximum DNA linked as in FIG. 3. […]

[4] = test system: DNA with two EBNA1-binding sites; experiment: Gel shift assay: binding of the peptides to DNA in the absence of NΔ360; settings: for Concentration reducing linking to 50% as percentage of concentration required to bind 50% of the DNA: 6.5 nM dimers of NΔ360, DNA binding in absence of NΔ360; for Difference between Ki and concentration which bound 50% of the DNA: linking by NΔ360 vs DNA binding by peptide alone
From the text: as §1, §4, §5

[5] = linking by NΔ360, DNA with two binding sites
[6] = DNA with two EBNA1-binding sites, read-out: Concentration for 50% inhibition of linking by NΔ360

Substance | Ki [1] | Ki [2] | Ki for linking by bEBNA1 relative to linking by NΔ360 [2] | IC50 [1, 6] | Concentration reducing linking to 50% as percentage of concentration required to bind 50% of the DNA [4] | Difference between Ki and concentration which bound 50% of the DNA [4] | Effectiveness of competition with linking by bEBNA1 relative to linking by NΔ360 [2] | other results
Poly-Lysine [reference compound] | 1900 nM | 11000 nM | 6 fold | – | – | – | – | IC50 ([1]; DNAs with two EBNA1-binding sites, read-out: Concentration inhibiting linking by NΔ360 to 50%): 1900 nM; Ki of polyK relative to Ki of A.A. 40-89 [1, 5]: 35 fold; Ki of polyK relative to Ki of A.A. 331-391 [1, 5]: 60 fold
GAL4(1-94): Amino acids 1 to 94 of the yeast transactivator GAL4 plus eight carboxy-terminal amino acids coded by the poly-cloning region [reference compound] | – | – | – | – | – | – | – | Inhibition of linking by NΔ360 ([1]; 4.5-fold molar excess of GAL4-derivative, DNA with two EBNA1-binding sites (FIG. 2B)): did not inhibit linking
NΔ360: EBNA1 derivative lacking the first 360 amino acids, expressed in E. coli | – | – | – | – | – | – | – | Inhibition of linking by GAL4(1-94)&54-89 [3]: inhibited linking
A.A. 40-89: EBNA1 amino acids 40-89 fused to an amino-terminal epitope (T7 Tag) and 6 carboxy-terminal histidines, expressed in bacteria | 55 nM | 7600 nM | 140 fold | 55 nM | 1% | 100 fold | approximately 1% | –
A.A. 331-391: EBNA1 amino acids 331-391 fused to an amino-terminal epitope (T7 Tag) and 6 carboxy-terminal histidines, expressed in bacteria | 30 nM | 3300 nM | 110 fold | 30 nM | 2% | 50 fold | approximately 1% | Excess of competitor relative to NΔ360 that halves the percentage of DNA linked ([1]; DNA with two EBNA1-binding sites): 5 fold; Effectiveness of competition for linking of the ten binding site DNA relative to the two binding site DNA ([1]; linking by NΔ360, data not shown): approximately 0.3%

— patent US6960429B2, “Inhibition of viral gene activities” (priority 1997, dated 2005)
